Assay results reported in patent US20210186905A1, “ENHANCING T-CELL FUNCTION AND TREATING A T-CELL DYSFUNCTIONAL DISORDER WITH A COMBINATION OF AN LSD INHIBITOR AND A PD-1 BINDING ANTAGONIST” (EpiAxis Therapeutic Pty Ltd, priority 2017, published 2021).
Structures can show the parent of a compound that is named as a salt.

Tests used:
Format in all cases: in vivo, mouse
CD4+ and CD8+ T-cells = assay: Flow cytometry, intracellular staining of IFN-γ, IL-2 and TNF-α after PMA/ionomycin
Experimental: (§1) FIG. 5 is a graphical representation showing that dual epigenetic-immunotherapy re-educates and re-programs the T-cell repertoire. A. Cells stimulated with PMA/ionomycin for 4 hours in the presence of Brefeldin A. Cells were surfaced stained with CD45, CD3, CD4, CD8, CD44, CD62L (for naïve, effector and central memory), CD25 and FoxP3 (for Tregs) and analyzed via Flow cytometry. A Mann-Whitney non-parametric t-test was used to compare control vs other groups (*p<0.05, n=2-5). […] Representative images for each dataset are shown. TNFI values for EOMES, TBET and Ki67 measured using Image) to select the nucleus minus background. Graphs represent the % change of expression relative to control group for CD8^+ T-cells. (n>20 individual cells, Group A=Control, Group C: PD1 (10 mg/kg), Group D: Phenelzine (40 mg/kg), Group F: PD1+Phenelzine). C. Cells stimulated with PMA/ionomycin for 4 hours in the presence of Brefeldin A. Cell were surfaced stained with CD45, CD3, CD4, CD8 and intracellular staining of IFN-γ, IL-2 and TNF-α in the presence of Brefeldin A and analyzed via flow cytometry. A Mann-Whitney non-parametric t-test was used to compare control vs other groups (*p<0.05, **p<0.008; n=2-5). […] Representative images for each dataset are shown. TNFI values for TNFα and IFNγ measured using ImageJ to select the nucleus minus background. Graphs represent the % change of expression relative to control group for CD8^+ T-cells. […]
Cells were surfaced stained with CD49b, F4/80 and intracellular stained for IFN-γ, TNF-α and IL-10. To label NK cells and the macrophages (M1/M2) in the tumor microenvironment or a suite of antibodies to label CD8^+ T-Cells (Cells were surfaced stained with CD45, CD3, CD4, CD8, CD44, CD62L (for naïve, effector and central memory). Cells were finally resuspended in PBS 2% FBS and flow cytometry performed on FACS Fortessa (BD) or FACS LSRII (BD). Analysis of data was done using FlowJo® analysis software and % cell populations calculated from the raw data. A Mann-Whitney non-parametric t-test was used to compare control vs other groups.

EOMES, TBET and Ki67 = assay: Immunofluorescence of T-cell exhaustion signature in CD8+ T-cells isolated from TME; conditions: % change relative to control
Experimental: as §1
A total of 2×10^5 cells were injected per mouse into mammary gland in 50 μL of phosphate buffered saline (PBS). […] Tumors were measured using calipers and the tumor volumes (mm3) were calculated using the formula (length×width2)/2. ? arvested cells from primary tumors where then cytospun ? -treated with poly-1-lysine and fixed then stored in PBS for IFA Microscopy Analysis. […] Digital images were analysed using ImageJ software (ImageJ, NIH, Bethesda, Md., USA) to determine the either the Total Nuclear Fluorescent Intensity (TNFI), the Total Cytoplasmic Fluorescent Intensity (TCFI) or total Fluorescent Intensity (TFI).

CD133, ALDH1A and ABCB5 = assay: Immunofluorescence of cancer cells from primary tumor micro-environment, chemo-resistant stem-like signature panel; conditions: cancer cells from primary TME; % change relative to vehicle control
Experimental: FIG. 2 is a graphical and photographic representation showing the efficacy of dual phenelzine sulfate (phenelzine) and anti-PD1 antibody (PD1) therapy on circulating tumor cells (CTCs) and cancer stem cells (CSC) as well as tumor burden. A. Statistics of tumor volumes on day 15 post-treatment. A Mann-Whitney non-parametric t-test was used to compare control vs other groups (*p<0.02, **p<0.008). Group A=Control, Group C: PD1 (10 mg/kg), Group D: Phenelzine (40 mg/kg), Group F: PD1+Phenelzine. Illustration of the treatment protocol is also shown. […] Representative images for each dataset are shown. […] C. […] (a) Representative images for each dataset are shown. (b) Graph represents the TCFI values for CD133 TNFI for ALDH1A and TFI for ABCB5 measured using ImageJ to select the nucleus/cytoplasm minus background (n>20 individual cells, Group A=Control, Group C: PD1 (10 mg/kg), Group D: Phenelzine (40 mg/kg), Group F: PD1+Phenelzine).
FIG. 11 is a photographic and graphical representation showing triple therapy efficacy on CTC/CSC and tumor burden. A. Statistics of tumor volumes on day 15 post-treatment. […] (b) Graph represents the TCFI values for CD133 TNFI for ALDH1A and TFI for ABCB5 measured using ImageJ to select the nucleus/cytoplasm minus background (n>20 individual cells, Group A=Control, Group B: Abraxane (30 mg/kg), Group C: anti-PD1 (10 mg/kg), Group D: Phenelzine (40 mg/kg), Group E: Abraxane+PD1, Group F: PD1+Phenelzine, Group G: Abraxane+Phenelzine, Group H: Triple Therapy).
Next, the cancer cells were assessed for expression of a chemo-resistant, stem-like biomarker signature biomarker panel (CD133, ALDH1A and ABCB5).
A total of 2×10^5 cells were injected per mouse into mammary gland in 50 μL of phosphate buffered saline (PBS). […] Tumors were measured using calipers and the tumor volumes (mm3) were calculated using the formula (length×width2)/2. ? arvested cells from primary tumors where then cytospun ? -treated with poly-1-lysine and fixed then stored in PBS for IFA Microscopy Analysis. […]

NNCCc1ccccc1 (racemic) [phenelzine sulfate, (±)-2-phenylethylhydrazine]
IL-2 production by CD4+ T-cells (CD4+ and CD8+ T-cells; CD4+ T-cells): much more efficient | pro-inflammatory/Th1 response (IFN-γ, IL-2 and TNF-α) (CD4+ and CD8+ T-cells; CD4+ and CD8+ T-cells, compared to the control): better pro-inflammatory/Th1 response | production of these cytokines (IFN-γ, IL-2, TNF-α) (CD4+ and CD8+ T-cells; as compared to the control): seems to increase | EOMES expression (EOMES, TBET and Ki67): strongly inhibit | Ki67 expression (EOMES, TBET and Ki67): more strongly | TBET expression (EOMES, TBET and Ki67): more strongly | expression of ABCB5 (CD133, ALDH1A and ABCB5): strongly inhibited | expression of ALDH1A (CD133, ALDH1A and ABCB5): did not significantly affect | expression of CD133 (CD133, ALDH1A and ABCB5): did not significantly affect
